Patent US20240384268A1, “Oligonucleotides” (Hudson Institute of Medical Research, priority 2021, published 2024)
In the oligonucleotide strings, read from the 5' end, every base follows the letter of its sugar. An asterisk marks phosphorothioate; unmarked linkages are phosphodiester. Other units and linkages are bracketed, terminal groups are in braces. A string of capitals states the bases alone. d = 2'-deoxy (DNA)

Columns and labels:
TLR3 = target: T1, TLR3 (Homo sapiens, UniProt O15455); assay: HEK-TLR3 NF-κB-luciferase reporter, poly(I:C) stimulation; type: cell-based; set-up: host or cells: HEK-Blue hTLR3 (HEK293); conditions: for TLR3 2uM: 3-mers DNA PS 45 min, then 500 ng/ml polyI:C overnight, NF-κB-luciferase normalised to polyI:C only (Ligand 1.000, NT 0.000); for inhibition of polyI:C sensing by TLR3 at 500 nM (in words): 500 nM ASOs/ODNs, poly(I:C) 1 μg/ml
T1 sequence (O15455 24-904): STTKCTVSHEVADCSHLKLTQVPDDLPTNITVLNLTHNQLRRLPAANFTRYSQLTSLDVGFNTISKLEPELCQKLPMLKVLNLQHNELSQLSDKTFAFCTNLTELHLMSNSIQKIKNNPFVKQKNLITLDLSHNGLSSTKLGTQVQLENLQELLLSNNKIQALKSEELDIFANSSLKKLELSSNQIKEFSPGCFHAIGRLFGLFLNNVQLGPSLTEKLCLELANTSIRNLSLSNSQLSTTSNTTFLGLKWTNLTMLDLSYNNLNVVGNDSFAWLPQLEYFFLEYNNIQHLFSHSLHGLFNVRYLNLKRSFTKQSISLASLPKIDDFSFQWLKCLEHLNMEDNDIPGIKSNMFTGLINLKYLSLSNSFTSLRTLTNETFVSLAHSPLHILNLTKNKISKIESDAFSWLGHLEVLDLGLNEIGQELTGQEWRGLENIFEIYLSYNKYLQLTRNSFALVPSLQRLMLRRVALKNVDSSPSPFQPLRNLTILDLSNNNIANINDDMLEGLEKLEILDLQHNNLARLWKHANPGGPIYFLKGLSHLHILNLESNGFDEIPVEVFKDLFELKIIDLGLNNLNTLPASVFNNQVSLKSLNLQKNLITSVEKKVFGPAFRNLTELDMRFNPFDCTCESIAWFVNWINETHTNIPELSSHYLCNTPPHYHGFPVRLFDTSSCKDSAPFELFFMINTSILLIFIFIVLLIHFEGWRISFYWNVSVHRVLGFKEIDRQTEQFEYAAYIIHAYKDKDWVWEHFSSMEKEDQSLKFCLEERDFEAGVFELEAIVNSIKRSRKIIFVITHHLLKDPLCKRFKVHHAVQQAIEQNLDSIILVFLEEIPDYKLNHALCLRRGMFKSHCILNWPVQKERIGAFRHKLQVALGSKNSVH

human TLR7 = target: T2, human TLR7 (Homo sapiens, UniProt Q9NYK1); assay: HEK-TLR7 NF-κB-luciferase reporter, R848 stimulation; type: cell-based; conditions: HEK-TLR7; 2 μM 3-mer DNA on a PS backbone; R848
T2 construct: HA; host or cells: 293XL-hTLR7-HA (HEK293)
T2 sequence (Q9NYK1 27-1049): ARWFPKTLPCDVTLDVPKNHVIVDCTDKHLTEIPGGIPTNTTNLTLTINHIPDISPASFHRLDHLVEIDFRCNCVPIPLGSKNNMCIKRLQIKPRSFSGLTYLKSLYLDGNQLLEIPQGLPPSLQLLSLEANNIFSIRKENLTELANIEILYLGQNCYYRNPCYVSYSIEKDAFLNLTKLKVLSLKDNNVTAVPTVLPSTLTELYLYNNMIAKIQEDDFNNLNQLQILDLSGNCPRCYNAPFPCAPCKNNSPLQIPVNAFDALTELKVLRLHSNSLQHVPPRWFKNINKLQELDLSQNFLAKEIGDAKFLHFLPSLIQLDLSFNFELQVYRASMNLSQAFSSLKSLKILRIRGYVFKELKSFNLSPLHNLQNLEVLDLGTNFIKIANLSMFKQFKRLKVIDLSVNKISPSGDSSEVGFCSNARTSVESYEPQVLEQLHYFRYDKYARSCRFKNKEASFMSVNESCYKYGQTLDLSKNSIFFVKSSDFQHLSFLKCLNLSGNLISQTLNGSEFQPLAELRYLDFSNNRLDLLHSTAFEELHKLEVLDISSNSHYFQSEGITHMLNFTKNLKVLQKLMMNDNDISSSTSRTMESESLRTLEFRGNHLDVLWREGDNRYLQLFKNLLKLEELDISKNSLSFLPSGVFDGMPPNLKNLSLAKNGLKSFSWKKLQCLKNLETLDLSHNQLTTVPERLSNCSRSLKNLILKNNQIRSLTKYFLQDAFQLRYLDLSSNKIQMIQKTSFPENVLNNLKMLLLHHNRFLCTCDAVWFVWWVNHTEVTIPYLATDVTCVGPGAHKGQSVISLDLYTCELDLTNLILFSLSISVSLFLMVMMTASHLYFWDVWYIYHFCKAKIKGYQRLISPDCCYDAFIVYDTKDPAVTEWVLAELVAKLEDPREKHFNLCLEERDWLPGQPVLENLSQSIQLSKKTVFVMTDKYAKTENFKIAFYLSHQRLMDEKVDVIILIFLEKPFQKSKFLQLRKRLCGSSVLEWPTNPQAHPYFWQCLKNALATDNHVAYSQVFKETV
Procedure: In such examples, inhibition of TLR7 activity can be identified by observation of an overall decreased TLR7 response of the cell population, or a lower proportion of cells having TLR7-positive activity as compared to positive control condition in which cells are treated with TLR7 agonist in the absence of the oligonucleotide (or in the presence of an appropriate control inhibitory agent). In one example, 293XLhTLR7 (referred to as HEK-TLR7) cells are transfected with pNF-κB-Luc4 reporter, incubated with an oligonucleotide, and then stimulated with R848. TLR7 activity can be determined by a luciferase assay, which measures activated NF-κB by luminescence. TLR7 activity can also be analysed by measuring cytokine levels, for example by ELISA. […] TLR7 activity may then be assessed by the gene or protein expression of TLR7-responsive genes, such as Tnfα and Oas3.
For cGAS stimulations, cells were treated for indicated duration with ASOs, prior to transfection with ISD70 (human cells) or ISD45 (mouse cells) (the ASOs were not washed off prior to ISD transfection unless otherwise indicated). The cGAS ligands ISD45 (Stetson and Medzhitov, 2006) and ISD70 (also known as VACV-70 (Unterholzner et al., 2010)) (Table 1) were resuspended as follows: 5 1d of sense and 5 μl of antisense strands at 10 μg/μl were added to 90 μl PBS under sterile conditions, heated at 75° C. for 30 min, prior to letting cool down at room temperature and aliquoting (stock at 1 μg/1 l). The ISDs were transfected at a concentration of […] at a ratio of 1 μg:1 μl with Lipofectamine 2000 in Opti-MEM (Thermo Fisher Scientific). HEK-TLR3, HEK-TLR7 and […] were treated with indicated concentration of ASOs for 20-50 min, prior to stimulation with poly(I:C) (Invivogen), R848 (Invivogen), Motolimod (MedChemExpress) and the Class B CpG oligonucleotides ODN 2006 (synthesised by IDT and resuspended in RNase-free TE buffer [Table 1]), respectively. The TLR2/1 agonist PAM3CSK4 (Invivogen), the TLR4 agonist lipopolysaccharide (Invivogen), the Class B CpG oligonucleotides ODN 1826 (synthesised by IDT and resuspended in RNase-free TE buffer), the mouse Sting agonist DMXAA (Cayman) and the human STING agonist (compound #3 from (Raanjulu et al., 2018), referred to as GSK herein—kind gift from Cancer Therapeutics CRC, Australia) were used at indicated concentrations. Aspirin (Sigma—A2093) was resuspended in pure medium to 10 mM, filter sterilised and added to the cells at 2 mM final. All ASOs were synthesised by Integrated DNA Technologies (IDT), and resuspended in RNase-free TE buffer, pH 8.0 (Thermo Fisher Scientific). Cell viability was assessed by adding 1× fresh resazurin solution to the wells (10λ solution made up with 7 mg resazurin [Sigma—R7017] dissolved in 3.5 ml PBS, sterile filtered at […]) for 4 h, prior to reading at with a Fluostar OPTIMA (BMG LABTECH) plate-reader (fluorescence: Excitation 535 nm, Emission 590); wells with medium only and 1× resazurin were used as blanks.
Following transfection, the cells were collected from the 6-wells and aliquoted into 96-wells, just before ASO and overnight TLR stimulation (as above described). Similarly, the LL171 cells expressing and ISRE-Luc reporter were treated overnight.

Substance	TLR3 2uM (TLR3)	further results
dA*dC*dT [ACT]	0.818	
T*G*C* T*T*G* A*C*A* T*C*C* T*G*G* A*G*G* G*G*T* T*G*T (TGCTTGACATCCTGGAGGGGTTGT; DNA, all phosphorothioate, methylation of C not given here) [IRS957, reference compound]		inhibition of polyI:C sensing by TLR3 at 500 nM (in words) (TLR3): blocked polyL:C sensing
dT*dA*dG [TAG]	0.769	
dT*dG*dT [TGT]	0.884	
T*T*C* A*A*A* T*T*C* A*A*A* T*T*C* A*A*A* T*T*C* A*A*A (dT*dT*dC*dA*dA*dA*dT*dT*dC*dA*dA*dA*dT*dT*dC*dA*dA*dA*dT*dT*dC*dA*dA*dA) [C151, reference compound]		inhibition of polyI:C sensing by TLR3 at 500 nM (in words) (TLR3): only partially reduced polyL:C-dependent TLR3 activation
T*G*C* T*T*G* C*A*A* G*C*T* T*G*C* A*A*G* C*A (TGCTTGCAAGCTTGCAAGCA; DNA, all phosphorothioate, methylation of C not given here) [IRS661, reference compound]		inhibition of polyI:C sensing by TLR3 at 500 nM (in words) (TLR3): blocked polyL:C sensing
dT*dT*dT [TTT]	1.139	inhibition of TLR7 by 3-mer DNA PS oligos (human TLR7): two most potent DNA 3-mers inhibiting TLR7
dG*dT*dC [GTC]	0.914	
dA*dG*dT [AGT]	0.865	
dT*dC*dG [TCG]	0.931	
dT*dT*dC [TTC]	0.928	
dT*dC*dC [TCC]	0.868	
dC*dT*dA [CTA]	0.864	
dC*dA*dT [CAT]	0.828	
dC*dC*dT [CCT]	0.914	
dA*dT*dT [ATT]	1.012	
dG*dT*dG [GTG]	0.929	
dC*dT*dT [CTT]	0.901	
dA*dT*dG [ATG]	0.849	
dC*dT*dG [CTG]	0.843	

Substance	TLR3 2uM (TLR3)	further results
dG*dG*dT [GGT]	0.959	
dA*dT*dA [ATA]	0.827	
dT*dA*dA [TAA]	0.968	
dA*dT*dC [ATC]	0.834	
dT*dG*dA [TGA]	0.743	
dT*dT*dG [TTG]	0.990	
dG*dT*dT [GTT]	1.009	
dT*dC*dA [TCA]	0.792	
dG*dC*dT [GCT]	0.998	
dT*dC*dT [TCT]	1.230	inhibition of TLR7 by 3-mer DNA PS oligos (human TLR7): two most potent DNA 3-mers inhibiting TLR7
dT*dT*dA [TTA]	0.855	
dT*dA*dT [TAT]	0.877	
dT*dA*dC [TAC]	0.704	inhibition of TLR3 sensing by 3-mer DNA PS oligos (TLR3; 2 μM 3-mer DNA PS, 500 ng/ml polyI:C): strongest DNA 3-mer
dC*dG*dT [CGT]	0.755	
dG*dT*dA [GTA]	0.818	
dA*dA*dT [AAT]	0.877	
dC*dT*dC [CTC]	0.911	
dT*dG*dC [TGC]	0.795	
dG*dA*dT [GAT]	0.864	
dT*dG*dG [TGG]	0.773	
